Experimental findings from patent publication US9725414B2, “Fungicidal N-bicycloalkyl and N-tricycloalkyl pyrazole-4-(thio)carboxamide derivatives” (priority 2011, dated 2017) are described below.

One experiment concerns Pyrenophora teres. Briefly: Example E: in vivo preventive test on Pyrenophora teres (barley), DMF/emulsifier preparation. The conditions noted are these: 500 ppm of active ingredient, evaluated 7-9 days after inoculation. In short, it runs like this: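 Young barley plants sprayed preventively with compound formulated in DMF/alkylaryl polyglycol ether emulsifier and diluted in water. One day later inoculated with aqueous Pyrenophora teres spore suspension, then held 48 h at 22 °C and 100% relative humidity.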

Another experiment has as its system Botrytis cinerea. In words: Example O: in vivo protective test on Botrytis cinerea (beans). The conditions noted are these: 100 ppm of active ingredient, lesion size 2 days after inoculation. As for the experimental part:
In Vivo Protective Test on Botrytis cinerea (Beans)
Solvent: 24.5 parts by weight of acetone • 24.5 parts by weight of N,N-dimethylacetamide
Emulsifier: 1 part by weight of alkylaryl polyglycol ether
To produce a suitable preparation of active compound, 1 part by weight of active compound is mixed with the stated amounts of solvent and emulsifier, and the concentrate is diluted with water to the desired concentration.
To test for preventive activity, young plants are sprayed with the preparation of active compound. After the spray coating has dried on, 2 small pieces of agar covered with growth of Botrytis cinerea are placed on each leaf. The inoculated plants are placed in a darkened chamber at 20° C. and a relative atmospheric humidity of 100%.
2 days after the inoculation, the size of the lesions on the leaves is evaluated. 0% means an efficacy which corresponds to that of the untreated control, while an efficacy of 100% means that no disease is observed.

Consider `Cn1nc(C(F)F)c(C(=O)N(CC2CC3CCC2C3)C2CC2)c1F` (stereo not shown) [Example 71], for which the Efficacy stood at 100% in the experiment with Pyrenophora teres and 97% in the experiment with Botrytis cinerea.
Taken in the same sequence, the figures for `CC(C1CC2CCC1C2)N(C(=O)c1c(C(F)F)nn(C)c1F)C1CC1` (stereo not shown) [Example 93] were 100% and 100%.
